Results taken from patent US6987110B2, “Substituted pyrrolines as kinase inhibitors” (Janssen Pharmaceutica N.V., priority 2002, dated 2006).

Tests used:
Format in all cases: biochemical
PKC isoform β-II = PKC isoform β-II (Homo sapiens, UniProt P05771); assay: Protein Kinase C histone-based assay, PKC β-II; settings: histone III substrate, 30 μM ATP; error approximately within ±30 percent; read-out: PKC Activity, Beta II (IC50, Histone Based Assay)
Method: (§1) Compounds were evaluated for PKC selectivity using histone III as the substrate. The PKC isoforms α, β-II or γ were added to a reaction mixture that contained 20 mM HEPES, (pH 7.4), 940 μM CaCl2, 10 mM MgCl2, 1 mM EGTA. 100 μg/mL phosphatidylserine, 20 μg/mL diacylglycerol, 30 μM ATP, 1 μCi (^33P)ATP and 200 μg/mL histone III. The reaction was incubated for 10 min at 30° C. Reactions were terminated by TCA precipitation and spotting on Whatman P81 filters. Filters were washed in 75 mM phosphoric acid and the radioactivity quantified by liquid scintillation counting.

PKC isoform α = PKC isoform α (Homo sapiens, UniProt P17252); assay: Protein Kinase C histone-based assay, PKC α; settings: histone III substrate, 30 μM ATP; error approximately within ±30 percent; read-out: PKC Activity, Alpha (IC50, Histone Based Assay)
Method: as §1

PKC isoform γ = PKC isoform γ (Homo sapiens, UniProt P05129); assay: Protein Kinase C histone-based assay, PKC γ; settings: histone III substrate, 30 μM ATP; error approximately within ±30 percent; read-out: PKC Activity, Gamma (IC50, Histone Based Assay)
Method: as §1

[1] = target: T1, recombinant rabbit GSK-3β (Oryctolagus cuniculus, UniProt G1T8E2); assay: Glycogen Synthase Kinase-3 assay (PPI-2 phosphorylation); settings: for IC50: PPI-2 substrate, 33P-ATP, 90 minutes at 30° C.
T1 construct: purchased New England Biolabs
T1 sequence (G1T8E2 1-432): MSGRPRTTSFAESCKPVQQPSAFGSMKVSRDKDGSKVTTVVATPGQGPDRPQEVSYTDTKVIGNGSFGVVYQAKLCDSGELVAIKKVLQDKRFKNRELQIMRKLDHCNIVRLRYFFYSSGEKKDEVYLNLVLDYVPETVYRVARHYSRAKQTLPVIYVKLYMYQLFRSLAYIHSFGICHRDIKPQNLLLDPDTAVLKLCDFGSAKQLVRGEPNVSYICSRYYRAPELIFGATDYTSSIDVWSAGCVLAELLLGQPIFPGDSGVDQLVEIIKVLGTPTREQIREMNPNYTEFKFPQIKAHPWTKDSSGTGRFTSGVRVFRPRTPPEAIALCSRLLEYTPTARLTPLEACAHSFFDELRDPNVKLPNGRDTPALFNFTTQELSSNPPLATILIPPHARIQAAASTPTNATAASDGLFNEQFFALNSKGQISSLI
Method: Compounds were tested for the ability to inhibit recombinant rabbit GSK-3β using the following protocol. The test compound was added to a reaction mixture containing Protein phosphatase inhibitor-2 (PPI-2) (Calbiochem) (45 ng), rabbit GSK-3β (New England Biolabs) (0.75 units) and ^33P-ATP (1 μCi) in 50 mM Tris-HCl (pH 8.0), 10 mM MgCl2, 0.1% BSA, 1 mM DTT and 100 μM Sodium Vanadate. The mixture was reacted for 90 minutes at 30° C. to allow phosphorylation of the PPI-2 protein and then the protein in the reaction was precipitated using 10% TCA. The precipitated protein was collected on filter plates (MultiScreen-DV/Millipore), which were subsequently washed. Finally, the radioactivity was quantified using a TopCount Scintillation Counter (Packard). […] Staurosporine or Valproate, known inhibitors of GSK-3β, were used as a positive control for screening.

Sequence of PKC isoform β-II (P05771 1-673 isoform P05771-2): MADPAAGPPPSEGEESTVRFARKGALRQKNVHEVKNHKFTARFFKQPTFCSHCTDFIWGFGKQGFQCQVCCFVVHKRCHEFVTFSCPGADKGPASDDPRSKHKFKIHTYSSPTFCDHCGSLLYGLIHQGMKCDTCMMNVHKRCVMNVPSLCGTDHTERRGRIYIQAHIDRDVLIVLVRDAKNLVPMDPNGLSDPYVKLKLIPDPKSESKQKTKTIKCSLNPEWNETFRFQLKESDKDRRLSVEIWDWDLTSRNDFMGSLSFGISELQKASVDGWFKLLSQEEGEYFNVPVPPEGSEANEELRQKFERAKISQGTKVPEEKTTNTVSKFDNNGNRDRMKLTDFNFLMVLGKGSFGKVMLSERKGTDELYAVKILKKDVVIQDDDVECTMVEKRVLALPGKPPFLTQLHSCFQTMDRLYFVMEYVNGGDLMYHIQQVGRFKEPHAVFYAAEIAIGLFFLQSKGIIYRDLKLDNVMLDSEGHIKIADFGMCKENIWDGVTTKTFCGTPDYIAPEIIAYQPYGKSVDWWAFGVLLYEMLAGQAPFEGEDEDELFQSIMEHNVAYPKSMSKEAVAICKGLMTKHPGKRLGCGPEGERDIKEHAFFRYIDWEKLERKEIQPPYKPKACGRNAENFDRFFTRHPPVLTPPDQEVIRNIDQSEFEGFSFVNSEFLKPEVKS

Row | IC50 (PKC isoform β-II) [nM] | IC50 (PKC isoform α) [nM] | IC50 (PKC isoform γ) [nM] | IC50 [1] [nM] | GSK-3β Assay Activity, percent at a single concentration ([1]; @ 1 μM) [% @ 1 μM] | Compound
1 | 15 | 228 | 429 | 8 | – | O=C1NC(=O)C(c2cn(-c3cncnc3)c3ccccc23)=C1c1cn(CCO)c2ccccc12 [Compound 2, 3-[1-(2-hydroxyethyl)-1H-indol-3-yl]-4-[1-(5-pyrimidinyl)-1H-indol-3-yl]-1H-pyrrole-2,5-dione]
2 | 60 | 3040 | 1440 | 116 | – | O=C1NC(=O)C(c2cn(-c3cncnc3)c3ccccc23)=C1c1cn(-c2cccnc2)c2ccccc12 [Compound 11, 3-[1-(3-pyridinyl)-1H-indol-3-yl]-4-[1-(5-pyrimidinyl)-1H-indol-3-yl]-1H-pyrrole-2,5-dione]
3 | 123 | 1010 | 4570 | 17 | – | O=C1NC(=O)C(c2cn(-c3cccnc3)c3ccccc23)=C1c1cn(CCn2cnnn2)c2ccccc12 [Compound 10, 3-[1-(3-pyridinyl)-1H-indol-3-yl]-4-[1-[2-(1H-tetrazol-1-yl)ethyl]-1H-indol-3-yl]-1H-pyrrole-2,5-dione]
4 | 23 | 58 | – | – | – | CN(C)CCCn1cc(C2=C(c3cn(-c4ccccc4)c4ccccc34)C(=O)NC2=O)c2ccccc21 [Compound 6, 3-[1-[3-(dimethylamino)propyl]-1H-indol-3-yl]-4-(1-phenyl-1H-indol-3-yl)-1H-pyrrole-2,5-dione]
5 | – | – | – | 24 | – | O=C1NC(=O)C(c2cn(-c3cccnc3)c3ccccc23)=C1c1cn(CCCO)c2ccccc12 [Compound 4, 3-[1-(3-hydroxypropyl)-1H-indol-3-yl]-4-[1-(3-pyridinyl)-1H-indol-3-yl]-1H-pyrrole-2,5-dione]
6 | – | – | – | 30 | – | Cn1cc(C2=C(c3cn(-c4cncnc4)c4ccccc34)C(=O)NC2=O)c2ccccc21 [Compound 7, 3-(1-methyl-1H-indol-3-yl)-4-[1-(5-pyrimidinyl)-1H-indol-3-yl]-1H-pyrrole-2,5-dione]
7 | – | – | – | 100 | – | Cn1cc(C2=C(c3cn(-c4cccnc4)c4ccccc34)C(=O)NC2=O)c2ccccc21 [Compound 8, 3-(1-methyl-1H-indol-3-yl)-4-[1-(3-pyridinyl)-1H-indol-3-yl]-1H-pyrrole-2,5-dione]
8 | 23 | 457 | 784 | 31 | – | O=C1NC(=O)C(c2cn(-c3cnc4ccccc4c3)c3ccccc23)=C1c1cn(CCO)c2ccccc12 [Compound 3, 3-[1-(2-hydroxyethyl)-1H-indol-3-yl]-4-[1-(3-quinolinyl)-1H-indol-3-yl]-1H-pyrrole-2,5-dione]
9 | 54 | 910 | 4950 | 7 | – | O=C1NC(=O)C(c2cn(-c3cccnc3)c3ccccc23)=C1c1cn(CCn2ncnn2)c2ccccc12 [Compound 9, 3-[1-(3-pyridinyl)-1H-indol-3-yl]-4-[1-[2-(2H-tetrazol-2-yl)ethyl]-1H-indol-3-yl]-1H-pyrrole-2,5-dione]
10 | – | – | – | – | 53 | CN(C)CCCn1cc(C2=C(c3cn(-c4csc5ccccc45)c4ccccc34)C(=O)NC2=O)c2ccccc21 [Compound 5, 3-(1-benzo[b]thien-3-yl-1H-indol-3-yl)-4-[1-[3-(dimethylamino)propyl]-1H-indol-3-yl]-1H-pyrrole-2,5-dione]
11 | 6 | 64 | 274 | 25 | – | O=C1NC(=O)C(c2cn(-c3cccnc3)c3ccccc23)=C1c1cn(CCO)c2ccccc12 [Compound 1, 3-[1-(2-hydroxyethyl)-1H-indol-3-yl]-4-[1-(3-pyridinyl)-1H-indol-3-yl]-1H-pyrrole-2,5-dione]
